Experimental data: PubChem BioAssay (NCI)
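Cultured in 96-well plates, cells were exposed to test compound for 48 hours across five concentrations. TGI: total growth inhibition.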

Columns and labels:
Experiment in all cases: growth of human tumour cells (NCI), 48 h
K-562 leukemia = test system: K-562 leukemia
NCI/ADR-RES ovarian = test system: NCI/ADR-RES ovarian
HCT-116 colon = test system: HCT-116 colon
A549 NSCLC = test system: A549 NSCLC
M14 melanoma = test system: M14 melanoma
RXF 393 renal = test system: RXF 393 renal
PC-3 prostate = test system: PC-3 prostate
NCI-H23 lung = test system: NCI-H23 lung
COLO 205 colon = test system: COLO 205 colon
MDA-MB-231 breast = test system: MDA-MB-231 breast
SNB-19 CNS = test system: SNB-19 CNS
HT29 colon = test system: HT29 colon
OVCAR-5 ovarian = test system: OVCAR-5 ovarian
SR leukemia = test system: SR leukemia
CCRF-CEM leukemia = test system: CCRF-CEM leukemia
SNB-75 CNS = test system: SNB-75 CNS

Row | SMILES | TGI (K-562 leukemia) [µM] | TGI (NCI/ADR-RES ovarian) [µM] | TGI (HCT-116 colon) [µM] | TGI (A549 NSCLC) [µM] | TGI (M14 melanoma) [µM] | TGI (RXF 393 renal) [µM] | TGI (PC-3 prostate) [µM] | TGI (NCI-H23 lung) [µM] | TGI (COLO 205 colon) [µM] | TGI (MDA-MB-231 breast) [µM] | TGI (SNB-19 CNS) [µM] | TGI (HT29 colon) [µM] | TGI (OVCAR-5 ovarian) [µM] | TGI (SR leukemia) [µM] | TGI (CCRF-CEM leukemia) [µM] | TGI (SNB-75 CNS) [µM]
1 | O=C(/C=C/c1ccc(O)c(O)c1O)OCCc1ccccc1 | 37.3 | 70.7 | 26.3 | 52.8 | 37.9 | 98.2 | > 100 | 48.7 | 64.5 | 47.3 | > 100 | 53.4 | > 100 | 40.6 | – | –
2 | Clc1nc2n(c1/C=C/c1cccs1)CCS2 | > 100 | > 100 | > 100 | > 100 | > 100 | > 100 | > 100 | > 100 | > 100 | 48.8 | > 100 | 96.6 | > 100 | – | 46.6 | > 100
3 | O=c1cc(-c2ccc(Cl)cc2)oc2cc(OCCCOc3ccc4c(=O)cc(-c5ccc(Cl)cc5)oc4c3)ccc12 | > 100 | – | > 100 | > 100 | > 100 | > 100 | – | > 100 | > 100 | – | > 100 | > 100 | > 100 | > 100 | > 100 | > 100
4 | Cc1ccsc1/C=N/Nc1nncc2ccccc12 | > 100 | > 100 | > 100 | > 100 | > 100 | > 100 | > 100 | > 100 | > 100 | > 100 | > 100 | > 100 | > 100 | – | > 100 | > 100
5 | Nc1nc(Cl)c2nnn(CC3CCC(CO)C3)c2n1 (stereo not given) | > 100 | > 100 | > 100 | > 100 | > 100 | > 100 | > 100 | – | > 100 | > 100 | > 100 | – | > 100 | – | > 100 | > 100
6 | O=C1CC(=O)N(CCc2ccccc2)S(=O)(=O)N1CCc1ccccc1 | 58.1 | – | 74.5 | 64.8 | > 100 | 83.4 | – | 69.1 | 44.2 | – | 87.4 | 47.5 | 64.4 | 48.2 | 35 | 84.7
7 | O=C(c1ccc(Br)cc1)n1c2ccc(Br)cc2c2nc3ccccc3nc21 | > 100 | > 100 | > 100 | – | > 100 | > 100 | > 100 | > 100 | > 100 | – | > 100 | > 100 | > 100 | > 100 | > 100 | > 100
8 | O=C(Nc1ccccc1F)c1cc2ccc(O)cc2oc1=Nc1cccc(C(F)(F)F)c1 | > 100 | 9.93 | 18.1 | > 100 | 26 | – | > 100 | 4.44 | 33 | – | > 100 | > 100 | > 100 | 17.7 | 4.79 | –
